This is an account of results in ChEMBL document CHEMBL1138819, “Synthesis and biological evaluation of pteridine and pyrazolopyrimidine based adenosine kinase inhibitors” (Bioorg Med Chem Lett, 2004).

Usually IC50 stands for the concentration that gives 50% inhibition. High values mean weaker potency in that assay, low ones greater potency in that assay.

The target of this assay is Adenosine kinase (Homo sapiens, UniProt P55263). Nature of the assay: In vitro inhibitory concentration against Adenosine kinase in cycstolic assay.
Adenosine kinase, sequence (P55263 whole entry): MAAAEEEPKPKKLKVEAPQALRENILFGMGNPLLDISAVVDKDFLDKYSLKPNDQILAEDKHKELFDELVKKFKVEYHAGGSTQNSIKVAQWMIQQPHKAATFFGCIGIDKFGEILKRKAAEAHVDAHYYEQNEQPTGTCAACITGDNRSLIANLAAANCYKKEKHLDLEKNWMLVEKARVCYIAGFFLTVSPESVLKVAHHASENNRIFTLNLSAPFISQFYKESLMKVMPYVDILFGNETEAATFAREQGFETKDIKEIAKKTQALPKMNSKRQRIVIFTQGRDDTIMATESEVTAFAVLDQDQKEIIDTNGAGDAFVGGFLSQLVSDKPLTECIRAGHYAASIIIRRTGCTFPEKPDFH
Regarding `Nc1ncnc(C#Cc2ccc(N3CCOCC3)nc2)c1Cc1cccc(Br)c1`, half-maximal inhibition (IC50) required 22 nM.

In the case of `CN(Cc1ccccc1)c1c(N)ncnc1C#Cc1ccc(N2CCOCC2)nc1`, the IC50 was 30 nM.

On to `Cn1nc(-c2cccc(Br)c2)c2c(C#Cc3ccc(N4CCOCC4)nc3)ncnc21`, for which half-maximal inhibition (IC50) required 82 nM.

Turning to `c1ccc(CCCCNc2ncnc3nc(-c4ccc(N5CCOCC5)nc4)cnc23)cc1`, the IC50 worked out at 82 nM.

Take `Nc1ncnc2nc(-c3ccc(N4CCOCC4)nc3)cnc12`: the half-maximal inhibitory concentration (IC50) is 460 nM.

Compound `c1ccc(CCCNc2ncnc3nc(-c4ccc(N5CCOCC5)nc4)cnc23)cc1` came in with an IC50 of 72 nM.

For the compound `Brc1cccc(-c2[nH]nc3ncnc(C#Cc4ccc(N5CCOCC5)nc4)c23)c1`, it took 22 nM to reach half-maximal inhibition (IC50).

`CN(C)c1ccc(C#Cc2[nH]cnc3nnc(-c4cccc(Br)c4)c2-3)cn1` returned an IC50 of 75 nM.

For `Nc1ncnc2cc(-c3ccc(N4CCOCC4)nc3)n(Cc3ccccc3)c12`, the IC50 is above 1000 nM.

As to `CN(C)c1ccc(C#Cc2ncnc3c2c(-c2cccc(Br)c2)nn3C)cn1`, the IC50 is 7.5 nM.

Consider `c1ccc(CCNc2ncnc3nc(-c4ccc(N5CCOCC5)nc4)cnc23)cc1`, for which it took 120 nM to reach half-maximal inhibition (IC50).

Regarding `CN(C)c1ccc(C#Cc2ncnc3n[nH]c(-c4ccccc4)c23)cn1`, the 50% inhibitory concentration (IC50) stood at 100 nM.

`Brc1cccc(-c2nn(Cc3ccccc3)c3ncnc(C#Cc4ccc(N5CCOCC5)nc4)c23)c1`: the IC50 is above 1000 nM.

Turning to `c1ccc2c(CCNc3ncnc4nc(-c5ccc(N6CCOCC6)nc5)cnc34)c[nH]c2c1`, the IC50 was 300 nM.
